Columns and labels:
[1] = Measurement of size of crystalline particulate (laser diffraction/scattering); format: physicochemical; settings: distilled water as dispersion medium, SALD-2000A
Description: The average particle size can be measured by using a per se known method and a measuring equipment. The term “average particle size” refers to a volume-average particle size as measured, for example, by a laser diffraction/scattering particle size distribution measuring apparatus (for example, SALD-2000A manufactured by Shimadzu Corporation). The particle size is usually measured by uniformly dispersing a HER2 inhibitor suspension at a concentration of about 1 to 100 μg/ml at room temperature while being subjected to ultra-sonication for a short period of time such as within 1 minute, or while stirring using a vortex mixer. The aqueous solvent used in the measurement is usually water, but buffer solutions having various pH's, a pseudo-body fluid and 0.5% methyl cellulose solution may be used. […]
The size of fine particles in the suspension of the drug of crystalline particulate obtained in Example 1 was measured. […] Further, the size of particles obtained by comminuting bulk of the compound of Reference Example B4, which was used in Example 1, with a jet mill was measured in the same manner.
The size of fine particles in the suspension of the drug of crystalline particulate obtained in Example 4a was measured. […] Further, crystalline particulate obtained in Example 8a were dispersed again in distilled water and the size of fine particles of the drug was measured in the same manner.

[2] = system: Human breast cancer cell line BT-474; test: In vivo breast cancer inhibiting effect (BT-474 implanted in nude mice); settings: nude mice with BT-474 tumors, orally twice daily 30 mg/kg body weight for 10 days
Description: In Vivo Breast Cancer Inhibiting Effect
Human breast cancer cell line BT-474 (5,000,000 cells) were suspended in a gel-matrix solution. The suspension was subcutaneously implanted in the breast of 6-week-old female Balb/C strain nude mice (Friedman R. et al., Proceedings of the National Academy of Sciences of the U.S.A. Vol. 87, pp. 6698-6702, 1990). At the time of the implantation and seven days after the implantation, an estradiol dipropionate solution (5 mg/mL) was intramuscularly administered to the hind leg for the purpose of enhancing a take ratio of tumors. Fourteen days after the implantation, the diameters of tumors were determined. For the experiment were used 5 mice per group with similar tumor size. Each of compounds (4, 6, 14, 17, 19, 20, 23, 24 and 26) of the present invention was suspended in a 5% gum arabic solution (physiological saline) and administered orally twice daily in dose of 30 mg/kg body weight for 10 days. On the day when the administration was terminated, the diameters of tumors were measured. Tumor volume was calculated by the following equation.
Volume of tumor=longest diameter×shortest diameter×shortest diameter×½
The growth rate of tumors was calculated as the proportion of the value obtained by subtracting the initial volume from the final volume in the group to which the drug was administered, to the value obtained by subtracting the initial volume from the final volume in the control group to which a gum arabic solution was administered.

[3] = system: human breast cancer cell line BT-474; test: In vitro inhibition of growth of breast cancer cell BT-474; format: cell-based; settings: 120 h, BT-474 cells, heregulin, cultured for 5 days, SRB staining
Description: In vitro Inhibition of Growth of Breast Cancer Cell BT-474
In each well of a 96-well microtiter plate, 100 μl (containing 1,000 cells) of a cell suspension of human breast cancer cell line BT-474 was seeded and incubated at 37° C. in a 5% carbon dioxide gas incubator. On the next day, 100 μl of the 2-fold serial dilution of a solution of each test compound prepared by using 250 μl of a heregulin solution, which was adjusted so as to be the final concentration of 0.8 μg/mL, was added to each well and cultured for 5 days. The solution containing the test compound was removed and the cells were washed and fixed with a 50% trichloroacetic acid solution. To the cells was added a 0.4% (W/V) solution of pigment SRB (dissolved in 1% acetic acid) to fix as well as stain the cell protein (Skehan P. et al., Journal of the National Cancer Institute Vol. 82, pp. 1107-1112, 1990). The pigment solution was removed and the remainder was washed with a 1% acetic acid solution. Then, 100 μl of an extracting solution (10 mM Tris buffer) was added thereto to extract the pigment. The optical density of the extract at the wavelength of 550 nm was measured to determine the amount of the cells in terms of the amount of the protein. The proportion of the amount of remaining protein of each treated group was determined by taking the amount of protein of the control to which no solution of a test compound was added as 100% to calculate the value of the concentration of the compound required for inhibiting the remaining cells by 50% of that of the control (IC50)

HER2 = biological target: T1, HER2 (Homo sapiens, UniProt P04626); test: Inhibition of phosphorylation of receptor tyrosine (HER2) in human breast cancer cells MCF-7; format: cell-based; settings: MCF-7 cells, test compound 2 hours, then heregulin 0.8 μg/mL for 5 minutes
T1 construct: amount of phosphorylation of HER2 tyrosine of the cells; endogenous in cells; host or cells: MCF-7 human breast cancer cell line
Description: Inhibition of Phosphorylation of Receptor Tyrosine in Human Breast Cancer Cells
In each well of a 24-well plate, 500 μl of the cell suspension ([…]) of human breast cancer cell line MCF-7 was seeded and incubated at 37° C. in a 5% carbon dioxide gas incubator. On the next day, 250 μl of a 4-fold serial dilution of a solution of a test compound was added to each well and, 2 hours later, 250 μl of a heregulin solution, which was adjusted so as to be the final concentration of 0.8 μg/mL, was added thereto. After 5 minutes, an extracting solution was added thereto to terminate the reaction as well as to extract a protein. The protein was fractionated by protein electrophoresis and the protein in the electrophoretic gel was transferred to a nylon filter. The filter was reacted with a phosphorylated tyrosine-specific antibody. The reaction product was fluorescence-labeled and was exposed to a photo-film. The intensity of the exposure on the photo-film was quantitated by an image-analyzing apparatus.

T1 sequence (P04626 23-1255): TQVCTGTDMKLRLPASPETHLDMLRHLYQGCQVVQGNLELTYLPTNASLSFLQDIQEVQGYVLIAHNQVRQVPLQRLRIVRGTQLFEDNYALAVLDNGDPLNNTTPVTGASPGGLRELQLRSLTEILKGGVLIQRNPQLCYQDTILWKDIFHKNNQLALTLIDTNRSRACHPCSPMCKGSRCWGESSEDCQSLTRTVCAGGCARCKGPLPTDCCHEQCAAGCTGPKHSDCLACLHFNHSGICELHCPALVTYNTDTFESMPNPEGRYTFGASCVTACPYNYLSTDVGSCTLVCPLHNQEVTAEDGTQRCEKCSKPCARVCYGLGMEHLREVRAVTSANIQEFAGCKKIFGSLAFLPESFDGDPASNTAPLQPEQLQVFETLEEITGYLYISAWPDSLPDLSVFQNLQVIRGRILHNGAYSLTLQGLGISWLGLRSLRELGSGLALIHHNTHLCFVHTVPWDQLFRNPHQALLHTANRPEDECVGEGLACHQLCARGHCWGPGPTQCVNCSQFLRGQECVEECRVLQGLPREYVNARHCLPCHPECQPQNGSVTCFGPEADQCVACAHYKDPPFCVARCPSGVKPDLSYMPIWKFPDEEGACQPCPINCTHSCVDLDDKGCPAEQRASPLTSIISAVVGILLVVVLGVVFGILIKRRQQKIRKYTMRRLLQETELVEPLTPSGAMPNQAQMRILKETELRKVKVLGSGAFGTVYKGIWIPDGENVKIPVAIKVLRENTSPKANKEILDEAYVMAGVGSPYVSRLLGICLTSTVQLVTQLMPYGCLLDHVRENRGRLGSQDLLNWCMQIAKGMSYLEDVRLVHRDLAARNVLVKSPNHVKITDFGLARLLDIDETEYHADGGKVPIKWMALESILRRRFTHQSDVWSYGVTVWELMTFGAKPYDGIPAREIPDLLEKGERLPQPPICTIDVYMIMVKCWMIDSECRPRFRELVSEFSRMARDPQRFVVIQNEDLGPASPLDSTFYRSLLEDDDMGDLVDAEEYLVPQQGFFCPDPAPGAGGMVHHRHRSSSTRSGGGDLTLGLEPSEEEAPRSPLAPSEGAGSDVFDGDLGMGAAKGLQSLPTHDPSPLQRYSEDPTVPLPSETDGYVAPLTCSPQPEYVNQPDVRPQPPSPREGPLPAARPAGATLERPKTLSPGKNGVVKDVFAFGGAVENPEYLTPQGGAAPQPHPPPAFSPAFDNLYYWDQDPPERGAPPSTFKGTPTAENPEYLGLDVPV

With FC(F)(F)c1ccc(/C=C/c2nc(COc3ccc(CCCCn4ccnn4)cc3)co2)cc1 [Reference Example B4, 1-(4-{4-[(2-{(E)-2-[4-(Trifluoromethyl)phenyl]ethenyl}-1,3-oxazol-4-yl)methoxy]phenyl}butyl)-1H-1,2,3-triazole] the “Average particle size (μm)” value [1] was no more than 4 μm, the “Average particle size (μm)” value ([1]; listed as Reference Example 4B) was 3.85 μm and the “Inhibition ratio (%)” value [2] was 5%. The IC50 [3] was less than 0.05 µM and the IC50 (HER2) was 0.1 µM.

Reference: patent US20040053972A1, “Medicinal compositions having improved absorbability” (priority 2000, published 2004)
